Holding throughout (type): in vitro ADME
Data set [1] is described as follows: In vitro stability in rat plasma. Put shortly: (§1)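 Peptide 5 μM final; rat plasma / liver homog. / kidney homog.; 37° C., 4 hr. Quench MeOH + IS, vortex 15 min RT, spin 5500 g 15 min; supernatant by HR LC-MS.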
The nature of data set [2]: In vitro stability in rat kidney homogenate. To be noted: rat, tissue homogenate. The procedure:
Apelin peptides were spiked into rat plasma, liver homogenate, and kidney homogenate, which were obtained from commercial sources, to a final concentration of 5 μM. The samples were then incubated at 37° C. over a period of 4 hr. […] In a typical experiment, an aliquot of 100 μL of sample was taken from the incubation vial, followed by addition of 300 μL of MeOH containing internal standard. The quenched sample was centrifuged at 5500 g for 15 min after 15 min vortex in room temperature. The supernatant was then analyzed by high resolution LC-MS. […] In vitro plasma, […], and kidney stability results are shown below in Table 14.

Data set [3] can be described thus: In vitro stability in rat liver homogenate. The settings on record: tissue homogenate. Put shortly:
as §1

Starred links: 1 amine or outer side, 2 acyl side, 3 side chain; linkers in the order of their positions; H or OH if unused. Non-standard residues stand in square brackets, D forms with d. Residues, ends and D or L forms follow the SMILES beside them. No end group written: not given here. *: point of attachment. Oic = O=C(O)[C@@H]1C[C@@H]2CCCC[C@@H]2N1; Phe(4-Cl) = N[C@@H](Cc1ccc(Cl)cc1)C(=O)O; γGlu = O=C(O)[C@H](CCC(=O)[*:2])N[*:1]; NMeR = CN[C@@H](CCCNC(=N)N)C(=O)O; Tridecanoyl = CCCCCCCCCCCCC(=O)*; hArg = N=C(N)NCCCC[C@H](N)C(=O)O; Cha = N[C@@H](CC1CCCCC1)C(=O)O; Gly(N-CH2CH2OH) = O=C(O)CNCCO; αMeL = CC(C)C[C@](C)(N)C(=O)O; Tle = CC(C)(C)[C@H](N)C(=O)O; αMeP = C[C@@]1(C(=O)O)CCCN1; β3hV = CC(C)[C@H](N)CC(=O)O; β3hP = O=C(O)C[C@@H]1CCCN1; Nle = CCCC[C@H](N)C(=O)O; Orn = NCCC[C@H](N)C(=O)O; AEEA = NCCOCCOCC(=O)O; Aib = CC(C)(N)C(=O)O

Here are results for twelve compounds from patent publication US11807693B2 (priority 2014, dated 2023).

Take `CCCCCCCCCCCCC(=O)N[C@@H](CCC(=O)NCCOCCOCC(=O)NCCOCCOCC(=O)N[C@H](CCC(N)=O)C(=O)N[C@@H](CCCCNC(=N)N)C(=O)N1CCC[C@H]1C(=O)N[C@H](CCCNC(=N)N)C(=O)N[C@@H](CC1CCCCC1)C(=O)N[C@@H](CO)C(=O)N[C@@H](Cc1c[nH]cn1)C(=O)N[C@@H](CCCCN)C(=O)N[C@H](C(=O)N1[C@H](C(=O)N[C@@H](CCCC)C(=O)N2CCC[C@H]2C(=O)N[C@@H](Cc2ccc(Cl)cc2)C(=O)O)C[C@@H]2CCCC[C@@H]21)C(C)(C)C)C(=O)O` [compound 371] ({Tridecanoyl-γGlu-AEEA-AEEA}-[dQ][hArg]P[dR][Cha]SHK[Tle][Oic][Nle]P[Phe(4-Cl)]-OH): the amount remaining (commonly the share of the starting amount still present when the sample was taken) at 4 h, 5 μM in data set [1] was 90%; in data set [2], 28%; in data set [3], 81%.
The like results for `CCCCCCCCCCCCC(=O)N[C@H](CC(=O)O)C(=O)NCCOCCOCC(=O)NCCOCCOCC(=O)N[C@H](CCC(N)=O)C(=O)N[C@@H](CCCNC(=N)N)C(=O)N1CCC[C@H]1C(=O)N(C)[C@@H](CCCNC(=N)N)C(=O)N[C@@H](CC1CCCCC1)C(=O)N[C@@H](CO)C(=O)N[C@@H](Cc1c[nH]cn1)C(=O)N[C@@H](CCCCN)C(=O)NCC(=O)N1[C@H](C(=O)N[C@@H](CCCC)C(=O)NC(C)(C)C(=O)N[C@@H](Cc2ccc(Cl)cc2)C(=O)O)C[C@@H]2CCCC[C@@H]21` [compound 538] (Tridecanoyl-[dD][AEEA][AEEA][dQ]RP[NMeR][Cha]SHKG[Oic][Nle][Aib][Phe(4-Cl)]-OH) were, in that order, 73%, below 1% and 2%.
In the same order, the values of `CCCCCCCCCCCCC(=O)N[C@@H](CCC(=O)NCCOCCOCC(=O)NCCOCCOCC(=O)N[C@@H](CCCN)C(=O)N[C@@H](Cc1ccccc1)C(=O)N[C@@H](CCCCNC(=N)N)C(=O)N[C@@H](CCCCNC(=N)N)C(=O)N[C@H](CC(=O)N[C@@H](CCCCNC(=N)N)C(=O)N1CCC[C@H]1C(=O)N[C@@H](CCCCNC(=N)N)C(=O)N[C@@H](CC1CCCCC1)C(=O)N[C@@H](CO)C(=O)N[C@@H](Cc1c[nH]cn1)C(=O)N[C@@H](CCCCN)C(=O)NCC(=O)N1[C@H](C(=O)N[C@@H](CCCC)C(=O)N2CCC[C@H]2C(=O)N[C@@H](Cc2ccc(Cl)cc2)C(=O)O)C[C@@H]2CCCC[C@@H]21)C(C)C)C(=O)O` [compound 307] ({Tridecanoyl-γGlu-AEEA-AEEA}-[Orn]F[hArg][hArg][β3hV][hArg]P[hArg][Cha]SHKG[Oic][Nle]P[Phe(4-Cl)]-OH) are above 90%, 13.8% and 66.8%.
The like results for `CCCCCCCCCCCCC(=O)N[C@@H](CCC(=O)NCCOCCOCC(=O)NCCOCCOCC(=O)N[C@H](CCC(N)=O)C(=O)N[C@@H](CCCNC(=N)N)C(=O)N1CCC[C@H]1CC(=O)N(C)[C@@H](CCCNC(=N)N)C(=O)N[C@@](C)(CC(C)C)C(=O)N[C@@H](CO)C(=O)N[C@@H](Cc1c[nH]cn1)C(=O)N[C@@H](CCCCN)C(=O)NCC(=O)N1[C@H](C(=O)N[C@@H](CCCC)C(=O)N2CCC[C@@]2(C)C(=O)N[C@@H](Cc2ccc(Cl)cc2)C(=O)O)C[C@@H]2CCCC[C@@H]21)C(=O)O` [compound 553] ({Tridecanoyl-γGlu-AEEA-AEEA}-[dQ]R[β3hP][NMeR][αMeL]SHKG[Oic][Nle][αMeP][Phe(4-Cl)]-OH) were, in that order, above 90%, 15% and 29%.
For `CCCCCCCCCCCCC(=O)N[C@@H](CCC(=O)NCCOCCOCC(=O)NCCOCCOCC(=O)N[C@@H](CCCC)C(=O)N[C@@H](CCC(N)=O)C(=O)N[C@@H](CCCNC(=N)N)C(=O)N1CCC[C@H]1C(=O)N[C@@H](CCCCNC(=N)N)C(=O)N[C@@H](CC1CCCCC1)C(=O)N[C@@H](CO)C(=O)N[C@@H](Cc1c[nH]cn1)C(=O)N[C@@H](CCCCN)C(=O)NCC(=O)N1[C@H](C(=O)N[C@@H](CCCC)C(=O)N2CCC[C@H]2C(=O)N[C@@H](Cc2ccc(Cl)cc2)C(=O)O)C[C@@H]2CCCC[C@@H]21)C(=O)O` [compound 338] ({Tridecanoyl-γGlu-AEEA-AEEA}-[Nle]QRP[hArg][Cha]SHKG[Oic][Nle]P[Phe(4-Cl)]-OH), the fraction remaining at 4 h, 5 μM in data set [1] came out at 76%; in data set [2] it was 1%; in data set [3], 12%.
The like results for `CCCCCCCCCCCCC(=O)N[C@@H](CCC(=O)NCCOCCOCC(=O)NCCOCCOCC(=O)N[C@H](CC(=O)N[C@@H](CCCNC(=N)N)C(=O)N1CCC[C@H]1C(=O)N(C)[C@@H](CCCNC(=N)N)C(=O)N[C@@H](CC1CCCCC1)C(=O)N[C@@H](CO)C(=O)N[C@@H](Cc1c[nH]cn1)C(=O)N[C@@H](CCCCN)C(=O)NCC(=O)N1[C@H](C(=O)N[C@@H](CCCC)C(=O)N2CCC[C@H]2C(=O)N[C@@H](Cc2ccc(Cl)cc2)C(=O)O)C[C@@H]2CCCC[C@@H]21)C(C)C)C(=O)O` [compound 393] ({Tridecanoyl-γGlu-AEEA-AEEA}-[β3hV]RP[NMeR][Cha]SHKG[Oic][Nle]P[Phe(4-Cl)]-OH) were, in that order, above 90%, 2% and 12%.
In the same order, the values of `CCCCCCCCCCCCC(=O)N[C@@H](CCC(=O)NCCOCCOCC(=O)NCCOCCOCC(=O)N[C@@H](CCC(N)=O)C(=O)N[C@@H](CCCNC(=N)N)C(=O)N1CCC[C@H]1C(=O)N(C)[C@@H](CCCNC(=N)N)C(=O)N[C@@H](CC(C)C)C(=O)N(CCO)CC(=O)N[C@@H](Cc1c[nH]cn1)C(=O)N[C@@H](CCCCN)C(=O)NCC(=O)N1CCC[C@H]1C(=O)N[C@@H](CCCC)C(=O)N1CCC[C@H]1C(=O)N[C@@H](Cc1ccc(Cl)cc1)C(=O)O)C(=O)O` [compound 467] ({Tridecanoyl-γGlu-AEEA-AEEA}-QRP[NMeR]L[Gly(N-CH2CH2OH)]HKGP[Nle]P[Phe(4-Cl)]-OH) are 27%, 83% and 87%.
In the same order, the values of `CCCCCCCCCCCCC(=O)N[C@@H](CCC(=O)NCCOCCOCC(=O)NCCOCCOCC(=O)N[C@@H](CCC(N)=O)C(=O)N1CCC[C@H]1CC(=O)N(C)[C@@H](CCCNC(=N)N)C(=O)N[C@@H](CC1CCCCC1)C(=O)N[C@@H](CO)C(=O)N[C@@H](Cc1c[nH]cn1)C(=O)N[C@@H](CCCCN)C(=O)NCC(=O)N1[C@H](C(=O)N[C@@H](CCCC)C(=O)NC(C)(C)C(=O)N[C@@H](Cc2ccc(Cl)cc2)C(=O)O)C[C@@H]2CCCC[C@@H]21)C(=O)O` [compound 550] ({Tridecanoyl-γGlu-AEEA-AEEA}-Q[β3hP][NMeR][Cha]SHKG[Oic][Nle][Aib][Phe(4-Cl)]-OH) are above 90%, below 1% and 2%.
In the case of “120 (QRP[NMeR][Cha]SHKG[Oic][Nle][Aib][Phe(4-Cl)]; not fully specified (N-terminus); ends and bridges not checked; also: 10K mPEG acetamide on N-terminal MerPr) [compound 120]”, the “Stability at 4 hours (% Remaining) Plasma” value in data set [1] (4 h, 5 μM) was 68 % Remaining. Besides, in data set [2] (4 h, 5 μM), the “Stability at 4 hours (% Remaining) Kidney” value is below 1.0 % Remaining. Further, the “Stability at 4 hours (% Remaining) Liver” value in data set [3] (4 h, 5 μM) is recorded as 61 % Remaining.
Take `CCCCCCCCCCCCC(=O)N[C@@H](CCC(=O)NCCOCCOCC(=O)NCCOCCOCC(=O)N[C@@H](CCCCNC(=N)N)C(=O)N[C@@H](CCC(N)=O)C(=O)N[C@@H](CCCCNC(=N)N)C(=O)N1CCC[C@H]1C(=O)N[C@@H](CCCCNC(=N)N)C(=O)N[C@@H](CC1CCCCC1)C(=O)N[C@@H](CO)C(=O)N[C@@H](Cc1c[nH]cn1)C(=O)N[C@@H](CCCCN)C(=O)NCC(=O)N1[C@H](C(=O)N[C@@H](CCCC)C(=O)N2CCC[C@H]2C(=O)N[C@@H](Cc2ccc(Cl)cc2)C(=O)O)C[C@@H]2CCCC[C@@H]21)C(=O)O` [compound 490] ({Tridecanoyl-γGlu-AEEA-AEEA}-[hArg]Q[hArg]P[hArg][Cha]SHKG[Oic][Nle]P[Phe(4-Cl)]-OH): the amount remaining at 4 h, 5 μM is 88% in data set [1], below 1% in data set [2] and 9% in data set [3].
In the same order, the values of `CCCCCCCCCCCCC(=O)N[C@@H](CCC(=O)N[C@@H](CCC(=O)NCCOCCOCC(=O)N[C@H](CCC(N)=O)C(=O)N[C@@H](CCCNC(=N)N)C(=O)N1CCC[C@H]1C(=O)N(C)[C@@H](CCCNC(=N)N)C(=O)N[C@@H](CC1CCCCC1)C(=O)N[C@@H](CO)C(=O)N[C@@H](Cc1c[nH]cn1)C(=O)N[C@@H](CCCCN)C(=O)NCC(=O)N1[C@H](C(=O)N[C@@H](CCCC)C(=O)NC(C)(C)C(=O)N[C@@H](Cc2ccc(Cl)cc2)C(=O)O)C[C@@H]2CCCC[C@@H]21)C(=O)O)C(=O)O` [compound 535] ({Tridecanoyl-γGlu-γGlu-AEEA}-[dQ]RP[NMeR][Cha]SHKG[Oic][Nle][Aib][Phe(4-Cl)]-OH) are 89%, below 1% and 3%.
The like results for `CCCCCCCCCCCCC(=O)N[C@@H](CCC(=O)NCCOCCOCC(=O)NCCOCCOCC(=O)N[C@H](CCC(N)=O)C(=O)N[C@@H](CCCNC(=N)N)C(=O)N1CCC[C@H]1C(=O)N(C)[C@@H](CCCNC(=N)N)C(=O)N[C@@H](CC1CCCCC1)C(=O)N[C@@H](CO)C(=O)N[C@@H](Cc1c[nH]cn1)C(=O)N[C@@H](CCCCN)C(=O)NCC(=O)N1CCC[C@@]1(C)C(=O)N[C@@H](CCCC)C(=O)NC(C)(C)C(=O)N[C@@H](Cc1ccc(Cl)cc1)C(=O)O)C(=O)O` [compound 498] ({Tridecanoyl-γGlu-AEEA-AEEA}-[dQ]RP[NMeR][Cha]SHKG[αMeP][Nle][Aib][Phe(4-Cl)]-OH) were, in that order, above 90%, 23% and above 90%.
